# Test results as given in patent publication US11666600B2, “Methods for culturing and/or differentiating hematopoietic stem cells into progenitors and uses thereof” (HEMA-QUEBEC, priority 2015, dated 2023).
# Columns and labels:
# cord blood CD34+ cells = assay: Expansion of CD34+/CD41+ megakaryocytic progenitors from cord blood CD34+ cells; type: cell-based, human; details: 39° C. + PIC 35 nM; 14 days; ACF + OMPC; FIG. 4
# Protocol: Human cord blood (CB) was collected after obtaining written informed consent from donors, following our institutional Research Ethics Committee guidelines. Mononuclear cells (MNCs) were first separated over a Ficoll-Hypaque™ density gradient (GE Healthcare), then cryopreserved at −180° C. in Cryostor CS10™ medium ([…] Technologies). Thawed MNCs from six to eight CB were pooled before CD34 isolation. CB CD34+ cells were enriched by positive selection using the EasySep™ CD34 enrichment kit, according to the manufacturer's instructions ([…] Technologies). […]
# (§1) Cellular counts and viability were determined by adding Solution 18 (Acridine Orange and DAPI solution, ChemomMetec) and using NucleoCounter™ NC-250 for detection (ChemomMetec).
# For cells expanded in conditions favoring differentiation towards the MK lineage, surface markers were detected using the following antibodies: CD34-FITC, CD41a-APC and CD42b-PE. […] All samples were analyzed on an Accuri™ C6 flow cytometer (BD Biosciences), and raw data were analyzed with FCS Express 5 Flow Research Edition software from at least 15 000 viable cell events acquired for each sample. […]
# Cellular counts and viability were determined as described in Example 6.5. […]
# [1] = system: Human CB CD34+-enriched cells; assay: Culture of CB CD34+-enriched cells in erythroid differentiation medium; type: cell-based; details: 14 days
# Protocol: Human cord blood (CB) was collected after obtaining written informed consent from donors, following our institutional Research Ethics Committee guidelines. Mononuclear cells (MNCs) were first separated over a Ficoll-Hypaque™ density gradient (GE Healthcare), then cryopreserved at −180° C. in Cryostor CS10™ medium ([…] Technologies). Thawed MNCs from six to eight CB were pooled before CD34 isolation. CB CD34+ cells were enriched by positive selection using the EasySep™ CD34 enrichment kit, according to the manufacturer's instructions ([…] Technologies).
# Human CB CD34+-enriched cells (purity≥90%) were seeded in 24-well plates at 100 000 cells/mL in expansion medium consisting of Eave's basal medium (Iscove's modified Dulbecco's medium (IMDM), 20% BIT ([…] bovine serum albumin, 10 μg/mL bovine pancreatic insulin, 200 μg/mL human transferrin; […] Technologies), 0.1 mg/mL low-density lipoprotein ([…] Technologies), 50 μM 2-mercaptoethanol) supplemented with 20 ng/mL SCF (Peprotech) and 2 U/mL erythropoietin (EPO; Feldan Therapeutics). Cultures were maintained in a humidified atmosphere with 5% CO2 at 37° C. or 39° C., as indicated in the Examples. Cells were diluted at 300 000 cells/mL with fresh medium every 3 to 4 days.
# as §1
# For cells expanded in conditions favoring differentiation towards the erythroid lineage, surface markers were detected using the following antibodies: CD34-FITC, CD71-APC and CD235-PE. All antibodies were purchased from BD Biosciences, except for CD34-FITC which was purchased from Immunotech. 7AAD was used as a viability dye. All samples were analyzed on an Accuri™ C6 flow cytometer (BD Biosciences), and raw data were analyzed with FCS Express 5 Flow Research Edition software from at least 15 000 viable cell events acquired for each sample.
# Cellular counts and viability were determined as described in Example 6.5.
# [2] = system: CD34+ cells from human umbilical cord blood; assay: CFU-MK assay (Megacult C) on cells grown in ACF + BS1; type: cell-based; details: 39° C. + PIC 35 nM; FIG. 2
# Protocol: Aliquots of cells grown in StemSpan™ ACF+BS1 culture medium were collected on the indicated days, and CFU-MK were determined using the Megacult™ C kit from […]™ Technologies, according to the manufacturer's instructions.
smiles,measurement,setting,value
"Cl.Cn1nnc(-c2ccc3c(c2)[nH]c2nc(Cc4ccccc4)nc(N[C@H]4CC[C@H](N)CC4)c23)n1 [PIC, (1r,4r)-N1-(2-benzyl-7-(2-methyl-2H-tetrazol-5-yl)-9H-pyrimido[4,5-b]indol-4-yl)cyclohexane-1,4-diamine hydrochloride]",combined use of mild hyperthermia and PIC on expansion of CD34+/CD41+ cells,cord blood CD34+ cells,synergistic effect
same,mild hyperthermia and PIC on expansion of CB CD34+ cells,"[1]; 39° C. + PIC 35 nM, erythroid differentiation medium, FIG. 12",additive effect
same,mild hyperthermia and PIC on expansion of CB CD34+/CD71+ cells (erythroid progenitors),"[1]; 39° C. + PIC 35 nM, erythroid differentiation medium, FIG. 13",additive effect
same,effect of addition of PIC on expansion of CD71+ erythroid precursors,"[1]; PIC 35 nM, 37° C. and 39° C., FIG. 10",decrease
same,effect of addition of PIC on total cell expansion,"[1]; PIC 35 nM, 37° C. and 39° C., FIG. 11",decrease
same,combined effect of mild hyperthermia and PIC on the number of CFU-MK,[2],synergized
